These results are taken from US11040952B2, “Phthalazinone compound, method for preparation thereof, pharmaceutical composition thereof, and use thereof” (SHANGHAI INSTITUTE OF MATERIA MEDICA, CHINESE ACADEMY OF …, priority 2017, dated 2021).

Bounds are passed on as bounds.

The first series concerns HBV. The series can be described thus: HBV DNA content in the supernatant of cell culture (real-time PCR). The series is classed as cell-based, hepatitis B virus (HBV). Particulars: Hepatitis B virus, HepG2.2.15, 192 h, inhibition of HBV DNA replication, HepG2.2.15 supernatant, 8 days. As to the method:
(§1) Human hepatoblastoma cell line HepG2.2.15 stably transfected with full-length HBV (provided by Shanghai Institute of Materia Medica, Chinese Academy of Sciences)
(§2) HepG2.2.15 cells were cultured and passaged according to conventional methods. DMEM containing 10% (v/v) bovine serum and the selective antibiotic G418 was used as a medium, the cells were cultured in an incubator at 37° C. under 5% CO2 for 8 days (the medium was exchanged on the 4th day).
(§3) The test compounds were formulated with DMSO into a 40 mM stock solution, which was then prepared into a solution at the defined highest concentration using a DMEM medium containing 10% Hyclone™ Fetal Bovine Serum, followed by diluting the same; the positive drug was lamivudine, which was also prepared into a solution at the defined concentration with the DMEM medium containing 10% Hyclone™ Fetal Bovine Serum.
HepG2.2.15 cells were treated with compounds at different concentrations for 8 days (the medium was exchanged on the 4th day), and the supernatant was aspirated, and the HBV DNA contained in the mature virus particles in the supernatant was quantitated by using a real-time PCR method.
1) The supernatant DNA from a 96-well plate, 200 μl/well, was collected, wherein the contents in the duplicate wells were collected into a same EP tube, and centrifuged at 4000 rcf for 5 min, and the supernatant was collected;
2) 200 μl of the supernatant was added into a 1.5 ml EP tube, added with 20 μl of proteinase K and 200 μl of Buffer AL (Qiagen, DNeasy® Blood & Tissue Kit), vortexed to be mixed thoroughly, and incubated at 56° C. for 10 min;
3) 200 μl of ethanol was added and vortexed to be mixed thoroughly;
4) all the liquid obtained from step 3) was added into a DNeasy Mini spin column (Qiagen, DNeasy® Blood & Tissue Kit) placed in a 2 ml waste liquid collection tube, and centrifuged at 6000 rcf for 1 min, and the supernatant was discarded;
5) the DNeasy Mini spin column was placed in a new 2 ml waste liquid collection tube, added with 500 μl of Buffer AW1 (Qiagen, DNeasy® Blood & Tissue Kit), and centrifuged at 6000 rcf for 1 min, and the supernatant was discarded;
6) the DNeasy Mini spin column was placed in a new 2 ml waste liquid collection tube, added with 500 μl of Buffer AW2, (Qiagen, DNeasy® Blood & Tissue Kit), and centrifuged at 20000 rcf for 3 min, and the supernatant was discarded;
7) the DNeasy Mini spin column was placed in anew 1.5 ml EP tube, 50 μl of Buffer AE (Qiagen, DNeasy® Blood & Tissue Kit) was pipetted and directly applied onto the membrane of the DNeasy Mini spin column, which was then left at room temperature for 5 min, and centrifuged at 6000 rcf for 1 min to elute the DNA from the membrane, the DNeasy Mini spin column was discarded, and the DNA sample was collected and stored at −20° C.
1) Standard curve: 1e^7-1e^4 IU/ml, the sample amount was 1 μl, a blank well was set so as to check whether the reaction system is polluted or not;
2) 1 μl of a DNA sample was added in sequence;
3) Addition of enzyme and reaction buffer: two tubes of the reaction solution were first added into the enzyme, mixed well and centrifuged slightly, placed on ice, added with the sample, followed by addition of 19 μl of the enzyme reaction solution, wherein, during the addition, the DNA sample should be sure of not being touched to cause contamination;
4) the sample was sealed with a sealing film and centrifuged;
Stage 2: 10 cycles • Step 1: 93° C., 45 s • Step 2: 55° C., 1 min Stage 3: 45 cycles • Step 1: 93° C., 30 s • Step 2: 55° C., 45 s
Detection: data were collected after completing the step 2 (55° C., 45 s) of the stage 3.
The experimental data were processed by using the Origin software and IC50 was calculated.
In turn, `CC(C)(C)OC(=O)NCCCCNc1ccc(-c2nn(Cc3ccc(C#N)cc3)c(=O)c3ccccc23)c(F)n1` [IV-45] came in with an IC50 of 368 nM.
`O=c1c2ccccc2c(-c2ccc(CO)nc2F)nn1Cc1ccc(Cl)cc1` [Compound I-22] came in with an IC50 of 400 nM.
As to `COC(=O)CCNc1nc(F)c(-c2nn(Cc3ccc(C#N)cc3)c(=O)c3ccccc23)cc1Cl` [IV-73], half-maximal inhibition (IC50) was put at 215 nM.
`N#Cc1ccc(Cn2nc(-c3ccc(C4CC4)nc3F)c3ccccc3c2=O)cc1` [IV-19]: the IC50 is 270 nM.
In turn, `O=c1c2ccccc2c(-c2cc(Cl)cnc2F)nn1Cc1ccc(Cl)cc1` [Compound I-39] registered an IC50 of 210 nM.
Same read-out and setting: with `O=c1c2ccccc2c(-c2ccc(C(F)(F)F)nc2F)nn1Cc1ccc(Cl)cc1` [Compound I-19] the figure was 200 nM; with `N#Cc1ccc(Cn2nc(-c3ccc(NCCC(F)(F)F)nc3F)c3ccccc3c2=O)cc1` [IV-83], 413 nM.
Still for that read-out and setting: with `[2H]C([2H])([2H])c1ccc(-c2nn(Cc3ccc(Cl)cc3)c(=O)c3ccccc23)c(F)n1` [Compound I-34] the figure was 200 nM; with `COc1cc2c(-c3ccc(C)nc3F)nn(Cc3ccc(C#N)cc3)c(=O)c2cc1OC` [Compound V-12], 4500 nM; with `COCCNc1nc(F)c(-c2nn(Cc3ccc(C#N)cc3)c(=O)c3ccccc23)cc1Cl` [IV-27], 14.2 nM.
As to `Cc1ccc(-c2nn(Cc3ccc(Cl)cc3)c(=O)c3cc(C(F)(F)F)c(C(F)(F)F)cc23)c(F)n1` [Compound V-9], the IC50 is 1300 nM.
The same measure, in the same setting: the same measure for `N#Cc1ncccc1-c1nn(Cc2ccc(Cl)cc2)c(=O)c2ccccc12` [Compound I-8]: 5200 nM.
Same read-out and setting: the same measure for `N#Cc1ccc(Cn2nc(-c3ccc(NCCCCO)nc3F)c3ccccc3c2=O)cc1` [IV-68]: 332 nM; for `CCOC(=O)CCNc1ccc(-c2nn(Cc3ccc(C#N)cc3)c(=O)c3ccccc23)c(F)n1` [IV-70]: 3320 nM; for `O=c1c2ccccc2c(-c2c(F)cc(F)nc2F)nn1Cc1ccc(Cl)cc1` [Compound I-23]: 600 nM.
On the same count and under the same terms, the same measure for `COc1ncc(-c2nn(Cc3ccc(Cl)cc3)c(=O)c3ccccc23)cn1` [II-3]: 8800 nM; for `COCCNc1nc(F)c(-c2nn(Cc3ccc(Cl)cc3)c(=O)c3ccccc23)cc1Cl` [IV-29]: 43.9 nM; for `CNc1ccc(-c2nn(Cc3ccc(C#N)cc3)c(=O)c3ccccc23)c(F)n1` [IV-8]: 900 nM.
Compound `Cc1ccc(-c2nn(Cc3ccc(C#N)cc3)c(=O)c3ccccc23)c(F)n1` [IV-6] showed an IC50 of 800 nM.
Regarding `N#Cc1ccc(Cn2nc(-c3cc(Cl)c(NCCCC(=O)O)nc3F)c3ccccc3c2=O)cc1` [IV-52], the IC50 came to 84.5 nM.
`COC(=O)CCCNc1nc(F)c(-c2nn(Cc3ccc(C#N)cc3)c(=O)c3ccccc23)cc1Cl` [IV-65] yielded an IC50 of 116 nM.

System in a further series: not listed separately
The series can be described thus: MTT assay for cytotoxicity. Format: cell-based, Human. Particulars: human, HepG2.2.15 cells, half (50%) lethal concentration. How it is done: as §1, §2, §3
HepG2.2.15 cells were seeded at 5×10^3 cells/well in a 96-well plate, and cultured for eight days in the presence of the compounds according to the above method, and then 200 μl of the supernatant was taken out, followed by addition of the MTT solution. After 4 hours of culture, a lysate was added. After 12 hours of culture, the OD570 was measured on a microplate reader. By comparing with the absorbance of the control well, the percentage of viable cells was calculated, and CC50, the concentration required for the reduction of cell viability by 50%, was calculated.
A general note: Formazan colour is commonly taken as a measure of viable cells.
In turn, `CC(C)(C)OC(=O)NCCCCNc1ccc(-c2nn(Cc3ccc(C#N)cc3)c(=O)c3ccccc23)c(F)n1` [IV-45] had a 50% cytotoxic concentration (CC50) at 8 days above 100000 nM.
Still for that read-out and setting: with `O=c1c2ccccc2c(-c2ccc(CO)nc2F)nn1Cc1ccc(Cl)cc1` [Compound I-22] the figure was above 100000 nM.
Still for that read-out and setting: the same measure for `COC(=O)CCNc1nc(F)c(-c2nn(Cc3ccc(C#N)cc3)c(=O)c3ccccc23)cc1Cl` [IV-73]: above 100000 nM.
Still for that read-out and setting: with `N#Cc1ccc(Cn2nc(-c3ccc(C4CC4)nc3F)c3ccccc3c2=O)cc1` [IV-19] the figure was above 100000 nM; with `O=c1c2ccccc2c(-c2cc(Cl)cnc2F)nn1Cc1ccc(Cl)cc1` [Compound I-39], above 25000 nM; with `O=c1c2ccccc2c(-c2ccc(C(F)(F)F)nc2F)nn1Cc1ccc(Cl)cc1` [Compound I-19], 77500 nM.
In turn, `N#Cc1ccc(Cn2nc(-c3ccc(NCCC(F)(F)F)nc3F)c3ccccc3c2=O)cc1` [IV-83] displayed a 50% cytotoxic concentration (CC50) at 8 days above 100000 nM.
On the same count and under the same terms, the same measure for `[2H]C([2H])([2H])c1ccc(-c2nn(Cc3ccc(Cl)cc3)c(=O)c3ccccc23)c(F)n1` [Compound I-34]: above 100000 nM.
On to `COc1cc2c(-c3ccc(C)nc3F)nn(Cc3ccc(C#N)cc3)c(=O)c2cc1OC` [Compound V-12], for which the CC50 at 8 days was above 100000 nM.
Compound `COCCNc1nc(F)c(-c2nn(Cc3ccc(C#N)cc3)c(=O)c3ccccc23)cc1Cl` [IV-27] returned a CC50 at 8 days above 100000 nM.
As to `Cc1ccc(-c2nn(Cc3ccc(Cl)cc3)c(=O)c3cc(C(F)(F)F)c(C(F)(F)F)cc23)c(F)n1` [Compound V-9], the CC50 at 8 days is above 100000 nM.
On the same count and under the same terms, with `N#Cc1ncccc1-c1nn(Cc2ccc(Cl)cc2)c(=O)c2ccccc12` [Compound I-8] the figure was above 100000 nM; with `N#Cc1ccc(Cn2nc(-c3ccc(NCCCCO)nc3F)c3ccccc3c2=O)cc1` [IV-68], above 100000 nM; with `CCOC(=O)CCNc1ccc(-c2nn(Cc3ccc(C#N)cc3)c(=O)c3ccccc23)c(F)n1` [IV-70], above 100000 nM.
In turn, `O=c1c2ccccc2c(-c2c(F)cc(F)nc2F)nn1Cc1ccc(Cl)cc1` [Compound I-23] yielded a CC50 at 8 days above 100000 nM.
Compound `COc1ncc(-c2nn(Cc3ccc(Cl)cc3)c(=O)c3ccccc23)cn1` [II-3] had a CC50 at 8 days above 100000 nM.
Regarding `COCCNc1nc(F)c(-c2nn(Cc3ccc(Cl)cc3)c(=O)c3ccccc23)cc1Cl` [IV-29], the midpoint of cytotoxicity, the CC50 at 8 days, lay at 26600 nM.
Same read-out and setting: with `CNc1ccc(-c2nn(Cc3ccc(C#N)cc3)c(=O)c3ccccc23)c(F)n1` [IV-8] the figure was above 100000 nM; with `Cc1ccc(-c2nn(Cc3ccc(C#N)cc3)c(=O)c3ccccc23)c(F)n1` [IV-6], above 100000 nM; with `N#Cc1ccc(Cn2nc(-c3cc(Cl)c(NCCCC(=O)O)nc3F)c3ccccc3c2=O)cc1` [IV-52], above 100000 nM.
Consider `COC(=O)CCCNc1nc(F)c(-c2nn(Cc3ccc(C#N)cc3)c(=O)c3ccccc23)cc1Cl` [IV-65], for which the CC50 at 8 days is above 100000 nM.

The IC50 is the concentration that gives 50% inhibition. A low value points to greater potency in that assay. Broadly, the CC50 is the concentration that lowers cell viability or growth by half. Low readings indicate greater toxicity to the cells, high ones lower toxicity to the cells.
